Molecular target: FXR (Homo sapiens (Human), UniProt Q96RI1)
Experiment: transient human FXR/Gal4-luciferase reporter assay
Assay type: cell-based
Conditions: Gal4-hFXR LBD fusion in HEK293 reporter cells; relative to 8 μM GW-4064
Description: The exemplified compounds of the present invention were tested in the transient human FXR/Gal4-luciferase reporter assay, and assay results were described in the EXAMPLES section hereinbefore.
A Gal4-hFXR fusion construct reporter system was used as the primary assay to characterize compound activity. A construct including 5 copies of the Gal4 promoter response element upstream of a firefly luciferase reporter cDNA was stably expressed in HEK293 cells. This reporter cell line was maintained in Dulbecco's Modified Eagle's medium (DMEM; Gibco) supplemented with 1% penicillin-streptomycin (P/S) solution, 500 μg/ml Zeocin and 10% charcoal/dextran-treated fetal bovine serum (cs-FBS) at 37° C. in a humidified 5% CO2 atmosphere. Another plasmid was constructed in which the human cytomegalovirus promoter in the pcDNA3.1 vector directs the expression of the cDNA encoding a fusion protein comprised of the DNA binding domain from the Gal4 transcription factor fused to the ligand binding domain from human FXR.
The day prior to transfection, the reporter cells in culture are detached from the plate with trypsin and plated into a T75 flask at a sufficient density to achieve approximately 90% confluence the next morning. The transfection reagents are prepared by separately diluting 25 μg of the pcDNA3.1-Gal4-FXR plasmid into 1.87 mL of Opti-MEM (Thermo-Fisher), and 40 μL of Lipofectamine 2000 (Thermo-Fisher) into 1.87 mL of Opti-MEM, and then adding the diluted DNA solution into the diluted Lipofectamine 2000 solution and incubating at room temperature for 15-20 minutes. The mixture is further diluted with 10 mL of a solution comprised of DMEM, 10% cs-FBS, and 1% P/S immediately prior to transferring to the cells. The maintenance culture media is aspirated from the cells and the final transfection mixture is added before the cells are incubated overnight at 37° C. in a humidified 5% CO2 atmosphere. This protocol can be scaled up, and the transiently transfected cells can be cryopreserved in an assay-ready format.
For compound testing, 100 nL of the compounds (serial dilutions in DMSO) are dispensed with an Echo acoustic dispenser (Labcyte) into the wells of a Corning/Costar clear bottom 384-well white plate. The transfected cells are harvested, counted, and diluted such that 10-25,000 cells in 25 μL are plated into each well of the 384-well compound assay plate. The compound-treated cells are incubated overnight at 37° C. in a humidified 5% CO2 atmosphere. The next morning 25 μL of Steady-Glo (Promega) are added to each well of the plate, the mixture is incubated for 15 min. with shaking, and luminescence is measured on an Envision (Perkin Elmer) plate reader. Background counts from cells treated with DMSO alone are subtracted from all raw counts, and the corrected values are converted to a percentage of the control response attained with 8 μM GW-4064.

Chain of FXR (Q96RI1 262-486): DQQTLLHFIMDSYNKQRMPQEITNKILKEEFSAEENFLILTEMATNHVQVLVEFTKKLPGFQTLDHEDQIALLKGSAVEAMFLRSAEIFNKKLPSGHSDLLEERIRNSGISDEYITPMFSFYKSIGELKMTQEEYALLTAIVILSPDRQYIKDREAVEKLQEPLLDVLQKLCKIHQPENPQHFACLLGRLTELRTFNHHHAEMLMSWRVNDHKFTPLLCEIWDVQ

Structure (SMILES)	EC50
O=C(O)c1cc2cc(C#CC34CCC(OCc5c(-c6c(Cl)cncc6Cl)noc5C5CC5)(CC3)CC4)ccc2c(N2CCOCC2)n1 [Example 555]	87 nM
O=C(O)COCc1ccc(C#CC23CCC(OCc4c(-c5c(Cl)cncc5Cl)noc4C4CC4)(CC2)CC3)cn1 [Example 571]	272 nM
O=C(O)CCc1ccc(C#CC23CCC(OCc4c(-c5c(Cl)cncc5Cl)noc4C4CC4)(CC2)CC3)cc1 [Example 564]	175 nM
O=C(O)COc1cc(C#CC23CCC(OCc4c(-c5c(Cl)cncc5Cl)noc4C4CC4)(CC2)CC3)ccn1 [Example 561]	779 nM
Cc1c(OCC23CCC(OCc4c(-c5c(Cl)cncc5Cl)noc4C4CC4)(CC2)CC3)nn(C)c1C(=O)O [Example 534]	248 nM
CCOc1nc(C(=O)O)cc2ccc(/C=C/C34CCC(OCc5c(-c6c(Cl)cncc6Cl)noc5C5CC5)(CC3)CC4)cc12 [Example 604]	44.1 nM
O=C(O)c1cc2ccc(/C=C/C34CCC(OCc5c(-c6c(Cl)cncc6Cl)noc5C5CC5)(CC3)CC4)cc2c(OC2CC2)n1 [Example 614]	51 nM
O=C(O)c1cn2c(n1)CN(CC13CCC(OCc4c(-c5c(Cl)cccc5Cl)noc4C4CC4)(CC1)CC3)CC2 [Example 578]	903 nM
CN(C)C(=O)Cc1ccc(/C=C/C23CCC(OCc4c(-c5c(Cl)cncc5Cl)noc4C4CC4)(CC2)CC3)cc1 [Example 620]	382 nM
O=C(O)CCc1cc(/C=C/C23CCC(OCc4c(-c5c(Cl)cncc5Cl)noc4C4CC4)(CC2)CC3)ccc1OCC(F)F [Example 624]	438 nM
O=C(O)c1ccn2cc(OCC34CCC(OCc5c(-c6c(Cl)cncc6Cl)noc5C5CC5)(CC3)CC4)nc2c1 [Example 538]	90 nM
O=C(O)CCc1cccc(/C=C/C23CCC(OCc4c(-c5c(Cl)cncc5Cl)noc4C4CC4)(CC2)CC3)c1 [Example 623]	843 nM
O=C(O)COCc1ccc(/C=C/C23CCC(OCc4c(-c5c(Cl)cncc5Cl)noc4C4CC4)(CC2)CC3)cc1 [Example 622]	176 nM
O=C(O)Cc1cccc(/C=C/C23CCC(OCc4c(-c5c(Cl)cncc5Cl)noc4C4CC4)(CC2)CC3)c1 [Example 600]	2040 nM
Cc1c(OCC23CCC(OCc4c(-c5c(Cl)cncc5Cl)noc4C4CC4)(CC2)CC3)nn(CC2COC2)c1C(=O)O [Example 533]	1910 nM
O=C(O)COCc1ccc(C#CC23CCC(OCc4c(-c5c(Cl)cncc5Cl)noc4C4CC4)(CC2)CC3)cc1 [Example 566]	194 nM
CNC(=O)Cc1ccc(/C=C/C23CCC(OCc4c(-c5c(Cl)cncc5Cl)noc4C4CC4)(CC2)CC3)cc1 [Example 618]	393 nM
CCn1nc(OCC23CCC(OCc4c(-c5c(Cl)cncc5Cl)noc4C4CC4)(CC2)CC3)c(C)c1C(=O)O [Example 530]	219 nM
O=C(O)c1cc(OCC23CCC(OCc4c(-c5c(Cl)cncc5Cl)noc4C4CC4)(CC2)CC3)n(C2CC2)n1 [Example 541]	59 nM
O=C(O)c1cc(OC2COC2)c2nc(C34CCC(OCc5c(-c6c(Cl)cncc6Cl)noc5C5CC5)(CC3)CC4)ccc2c1 [Example 544]	118 nM
COc1nc(C(=O)O)nc2ccc(/C=C/C34CCC(OCc5c(-c6c(Cl)cncc6Cl)noc5C5CC5)(CC3)CC4)cc12 [Example 590]	944 nM
Cc1c(OCC23CCC(OCc4c(-c5c(Cl)cncc5Cl)noc4C4CC4)(CC2)CC3)nn(CC2CC2)c1C(=O)O [Example 532]	148 nM
CCn1nc(C(=O)O)c(F)c1OCC12CCC(OCc3c(-c4c(Cl)cncc4Cl)noc3C3CC3)(CC1)CC2 [Example 540]	345 nM
CCOc1cc(C(=O)O)nc2ccc(/C=C/C34CCC(OCc5c(-c6c(Cl)cncc6Cl)noc5C5CC5)(CC3)CC4)cc12 [Example 598]	11 nM
CC(C)Oc1cc(C(=O)O)nc2ccc(/C=C/C34CCC(OCc5c(-c6c(Cl)cncc6Cl)noc5C5CC5)(CC3)CC4)cc12 [Example 591]	16 nM
CCn1nc(C(=O)O)cc1OCC12CCC(OCc3c(-c4c(Cl)cncc4Cl)noc3C3CC3)(CC1)CC2 [Example 537]	79 nM
O=C(O)c1cncc(/C=C/C23CCC(OCc4c(-c5c(Cl)cncc5Cl)noc4C4CC4)(CC2)CC3)c1 [Example 627]	1150 nM

Structure (SMILES)	EC50
Cn1nc(NCC23CCC(OCc4c(-c5c(Cl)cccc5Cl)noc4C4CC4)(CC2)CC3)cc1C(=O)O [Example 581]	265 nM
COC1CN(c2nc(C(=O)O)cc3ccc(/C=C/C45CCC(OCc6c(-c7c(Cl)cncc7Cl)noc6C6CC6)(CC4)CC5)cc23)C1 [Example 609]	67 nM
O=C(O)c1cc(C(F)(F)F)cc(COCC23CCC(OCc4c(-c5c(Cl)cncc5Cl)noc4C4CC4)(CC2)CC3)n1 [Example 527]	86 nM
O=C(O)c1cc2ccc(C#CC34CCC(OCc5c(-c6c(Cl)cncc6Cl)noc5C5CC5)(CC3)CC4)cc2c(N2CCNCC2)n1 [Example 573]	1630 nM
O=C(O)c1cc2ccc(C#CC34CCC(OCc5c(-c6c(Cl)cncc6Cl)noc5C5CC5)(CC3)CC4)cc2c(N2CCC(O)C2)n1 (centres unmarked) [Example 557]	188 nM
O=C(O)c1cc2ccc(/C=C/C34CCC(OCc5c(-c6c(Cl)cncc6Cl)noc5C5CC5)(CC3)CC4)cc2c(OC2CCC2)n1 [Example 613]	298 nM
O=C(O)c1cc2ccc(/C=C/C34CCC(OCc5c(-c6c(Cl)cncc6Cl)noc5C5CC5)(CC3)CC4)cc2c(Cl)n1 [Example 599]	15 nM
COCCCOc1nc(C(=O)O)cc2ccc(/C=C/C34CCC(OCc5c(-c6c(Cl)cncc6Cl)noc5C5CC5)(CC3)CC4)cc12 [Example 601]	18 nM
CCc1nc(C(=O)O)cc2ccc(OCC34CCC(OCc5c(-c6c(Cl)cncc6Cl)noc5C5CC5)(CC3)CC4)cc12 [Example 529]	9 nM
O=C(O)c1cc(OC2CCOC2)c2nc(C34CCC(OCc5c(-c6c(Cl)cncc6Cl)noc5C5CC5)(CC3)CC4)ccc2c1 (centres unmarked) [Example 560]	286 nM
O=C(O)c1cc2ccc(C#CC34CCC(OCc5c(-c6c(Cl)cncc6Cl)noc5C5CC5)(CC3)CC4)cc2c(N2CCOCC2)n1 [Example 548]	13 nM
O=C(O)c1csc(-c2ccc(/C=C/C34CCC(OCc5c(-c6c(Cl)cncc6Cl)noc5C5CC5)(CC3)CC4)cc2)n1 [Example 628]	72 nM
O=C(O)c1cccc(COCC23CCC(OCc4c(-c5c(Cl)cncc5Cl)noc4C4CC4)(CC2)CC3)c1 [Example 525]	167 nM
O=C(O)c1cc(/C=C/C23CCC(OCc4c(-c5c(Cl)cncc5Cl)noc4C4CC4)(CC2)CC3)ccn1 [Example 626]	879 nM
O=C(O)c1cc2ccc(C#CC34CCC(OCc5c(-c6c(Cl)cncc6Cl)noc5C5CC5)(CC3)CC4)cc2c(N2CC(O)C2)n1 [Example 552]	100 nM
O=C(O)c1cncc(NCC23CCC(OCc4c(-c5c(Cl)cccc5Cl)noc4C4CC4)(CC2)CC3)c1 [Example 580]	543 nM
O=C(O)c1cnc2cc(/C=C/C34CCC(OCc5c(-c6c(Cl)cncc6Cl)noc5C5CC5)(CC3)CC4)ccn12 [Example 592]	194 nM
COCCCOc1nc(C(=O)O)cc2cc(C#CC34CCC(OCc5c(-c6c(Cl)cncc6Cl)noc5C5CC5)(CC3)CC4)ccc12 [Example 549]	126 nM
O=C(O)c1ccc(NCC23CCC(OCc4c(-c5c(Cl)cccc5Cl)noc4C4CC4)(CC2)CC3)nc1 [Example 579]	70 nM
O=C(O)c1cc(C(F)(F)F)cn2c(C#CC34CCC(OCc5c(-c6c(Cl)cncc6Cl)noc5C5CC5)(CC3)CC4)cnc12 [Example 545]	5 nM
COc1ncc(C(=O)O)cc1C#CC12CCC(OCc3c(-c4c(Cl)cncc4Cl)noc3C3CC3)(CC1)CC2 [Example 563]	16 nM
O=C(O)c1cc2ccc(C#CC34CCC(OCc5c(-c6c(Cl)cncc6Cl)noc5C5CC5)(CC3)CC4)cc2c(Nc2ccccc2)n1 [Example 550]	186 nM
CN1CCN(c2nc(C(=O)O)cc3cc(C#CC45CCC(OCc6c(-c7c(Cl)cncc7Cl)noc6C6CC6)(CC4)CC5)ccc23)CC1 [Example 570]	201 nM
Cn1c(C(=O)O)cc2ccc(/C=C/C34CCC(OCc5c(-c6c(Cl)cncc6Cl)noc5C5CC5)(CC3)CC4)cc21 [Example 595]	49 nM
O=C(O)COc1ccc(/C=C/C23CCC(OCc4c(-c5c(Cl)cncc5Cl)noc4C4CC4)(CC2)CC3)cn1 [Example 616]	3040 nM
COc1ncc(-c2noc(C34CCC(OCc5c(-c6c(Cl)cncc6Cl)noc5C5CC5)(CC3)CC4)n2)cc1C(=O)O [Example 585]	114 nM

Source: US10730863B2, “Bridged bicyclic compounds as farnesoid X receptor modulators” (BRISTOL-MYERS SQUIBB COMPANY, priority 2017, dated 2020)
